One experiment concerns the target HDAC8 (Homo sapiens (Human), UniProt Q9BY41). To be noted: read-out: HDAC8 IC50.
The next experiment concerns the target HDAC5 (Homo sapiens (Human), UniProt Q9UQL6). To be noted: read-out: HDAC5 IC50.
The next experiment addresses HDAC1 (Homo sapiens (Human), UniProt Q13547). As to conditions: read-out: HDAC1 IC50.

Our source for the IC50 values is patent US11066396B2 (priority 2016, dated 2021).

HDAC8, sequence (Q9BY41 whole entry): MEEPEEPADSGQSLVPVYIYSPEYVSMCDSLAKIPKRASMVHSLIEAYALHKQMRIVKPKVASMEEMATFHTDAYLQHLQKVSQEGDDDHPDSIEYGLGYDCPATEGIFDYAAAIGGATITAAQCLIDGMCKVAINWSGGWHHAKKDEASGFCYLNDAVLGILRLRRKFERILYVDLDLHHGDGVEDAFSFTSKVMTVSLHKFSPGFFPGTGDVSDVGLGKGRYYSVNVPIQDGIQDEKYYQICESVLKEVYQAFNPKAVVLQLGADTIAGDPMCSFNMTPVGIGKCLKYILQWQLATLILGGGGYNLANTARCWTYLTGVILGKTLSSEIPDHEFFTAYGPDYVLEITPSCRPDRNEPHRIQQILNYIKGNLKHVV
HDAC1, sequence (Q13547 whole entry): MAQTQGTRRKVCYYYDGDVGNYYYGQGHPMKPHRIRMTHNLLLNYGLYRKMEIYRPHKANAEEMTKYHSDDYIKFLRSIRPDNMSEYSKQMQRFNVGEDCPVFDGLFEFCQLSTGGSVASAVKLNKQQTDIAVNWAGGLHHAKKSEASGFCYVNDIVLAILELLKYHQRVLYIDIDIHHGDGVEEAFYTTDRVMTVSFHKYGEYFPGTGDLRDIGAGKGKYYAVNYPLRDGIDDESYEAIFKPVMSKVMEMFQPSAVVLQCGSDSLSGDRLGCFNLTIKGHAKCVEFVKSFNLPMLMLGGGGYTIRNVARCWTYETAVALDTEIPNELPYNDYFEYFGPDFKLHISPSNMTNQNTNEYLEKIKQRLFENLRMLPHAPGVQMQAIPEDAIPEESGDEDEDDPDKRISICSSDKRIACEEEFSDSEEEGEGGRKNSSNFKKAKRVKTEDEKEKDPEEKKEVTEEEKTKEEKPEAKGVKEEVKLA
HDAC5, sequence (Q9UQL6 656-1122): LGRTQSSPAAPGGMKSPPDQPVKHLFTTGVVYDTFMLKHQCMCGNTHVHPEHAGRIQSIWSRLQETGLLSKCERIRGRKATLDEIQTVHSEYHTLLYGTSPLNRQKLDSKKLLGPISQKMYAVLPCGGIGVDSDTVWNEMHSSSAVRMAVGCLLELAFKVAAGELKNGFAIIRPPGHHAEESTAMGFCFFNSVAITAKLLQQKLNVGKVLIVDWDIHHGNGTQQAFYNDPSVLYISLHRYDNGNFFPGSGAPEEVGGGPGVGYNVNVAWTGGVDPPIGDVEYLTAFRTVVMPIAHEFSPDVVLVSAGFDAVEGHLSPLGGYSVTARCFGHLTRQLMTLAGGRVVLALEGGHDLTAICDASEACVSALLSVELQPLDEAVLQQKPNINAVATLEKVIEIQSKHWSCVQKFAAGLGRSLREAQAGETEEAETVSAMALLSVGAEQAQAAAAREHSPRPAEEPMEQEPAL

As for `COc1ccc(OCc2ccc(-c3noc(C(F)(F)F)n3)c(F)c2)nc1` [Example 243, 2-({3-fluoro-4-[5-(trifluoromethyl)-1,2,4-oxadiazol-3-yl]phenyl}methoxy)-5-methoxypyridine], the concentration for half-maximal inhibition (IC50) on HDAC8 is 1.6 µM; on HDAC5 it was 0.05 µM; on HDAC1, 1.5 µM.

As for `Cc1cncnc1OCc1ccc(-c2noc(C(F)(F)F)n2)c(F)c1` [Example 244, 4-({3-fluoro-4-[5-(trifluoromethyl)-1,2,4-oxadiazol-3-yl]phenyl}methoxy)-5-methylpyrimidine], the IC50 on HDAC8 is 1.9 µM; on HDAC5, 0.13 µM; on HDAC1 it was 3.3 µM.

Consider `Fc1cc(COc2cnc3c(c2)COC3)ccc1-c1noc(C(F)(F)F)n1` [Example 245, 3-({3-fluoro-4-[5-(trifluoromethyl)-1,2,4-oxadiazol-3-yl]phenyl}methoxy)-5,7-dihydrofuro[3,4-b]pyridine], for which the IC50 at HDAC8 came to 3.4 µM; on HDAC5, 0.18 µM; on HDAC1 it was 1.5 µM.

`COc1ncccc1OCc1ccc(-c2noc(C(F)(F)F)n2)c(F)c1` [Example 246, 3-({3-fluoro-4-[5-(trifluoromethyl)-1,2,4-oxadiazol-3-yl]phenyl}methoxy)-2-methoxypyridine]: the IC50 at HDAC8 was found to be 45 µM; at HDAC5, 0.12 µM; on HDAC1, 2.4 µM.

On to `Cc1nc(OCc2ccc(-c3noc(C(F)(F)F)n3)c(F)c2)c2cnn(C)c2n1` [Example 248, 4-({3-fluoro-4-[5-(trifluoromethyl)-1,2,4-oxadiazol-3-yl]phenyl}methoxy)-1,6-dimethyl-1H-pyrazolo[3,4-d]pyrimidine], for which the IC50 at HDAC8 is 2.6 µM; at HDAC5 it was 0.059 µM; on HDAC1 it was 2.6 µM.

Turning to `Fc1cc(COc2[nH]nc3c2COCC3)ccc1-c1noc(C(F)(F)F)n1` [Example 249, 3-({3-fluoro-4-[5-(trifluoromethyl)-1,2,4-oxadiazol-3-yl]phenyl}methoxy)-2,4,6,7-tetrahydropyrano[4,3-c]pyrazole], the values for the IC50 at HDAC8, on HDAC5 and on HDAC1 were 2.3 µM, 0.074 µM and 3.1 µM, respectively.

As for `Fc1ccccc1OCc1ccc(-c2noc(C(F)(F)F)n2)cn1` [Example 251, 2-[(2-fluorophenoxy)methyl]-5-[5-(trifluoromethyl)-1,2,4-oxadiazol-3-yl]pyridine], the IC50 was 3.5 µM on HDAC8, 0.19 µM on HDAC5 and 1.2 µM at HDAC1.

Turning to `Nc1cccnc1COCc1ccc(-c2noc(C(F)(F)F)n2)c(F)c1` [Example 252, 2-[({3-fluoro-4-[5-(trifluoromethyl)-1,2,4-oxadiazol-3-yl]phenyl}methoxy)methyl]pyridin-3-amine], the IC50 stood at 4.5 µM on HDAC8, 0.12 µM on HDAC5 and 2.6 µM on HDAC1.

As to `Cc1ccc(NCc2ccc(-c3noc(C(F)(F)F)n3)c(F)c2)cn1` [Example 253, N-({3-fluoro-4-[5-(trifluoromethyl)-1,2,4-oxadiazol-3-yl]phenyl}methyl)-6-methylpyridin-3-amine], the IC50 is 3.9 µM on HDAC8, 0.064 µM at HDAC5 and 1.7 µM at HDAC1.

As to `Fc1cc(CNc2ccc3ccncc3c2)ccc1-c1noc(C(F)(F)F)n1` [Example 254, N-({3-fluoro-4-[5-(trifluoromethyl)-1,2,4-oxadiazol-3-yl]phenyl}methyl)isoquinolin-7-amine], the IC50 on HDAC8 came out at 45 µM; on HDAC5, 0.14 µM; at HDAC1, 1.6 µM.

Consider `Cn1cnc2cc(COc3nccc(-c4noc(C(F)(F)F)n4)c3Cl)ccc21` [Example 255, 5-[({3-chloro-4-[5-(trifluoromethyl)-1,2,4-oxadiazol-3-yl]pyridin-2-yl}oxy)methyl]-1-methyl-1H-benzimidazole], for which the results for the IC50 at HDAC8, at HDAC5 and at HDAC1 were 1.6 µM, 0.38 µM and 1.7 µM, respectively.

With `CN(C(=O)[C@@H]1CCC(=O)N1c1ccc(-c2noc(C(F)(F)F)n2)c(F)c1)C(C)(C)C` [Example 340, N-tert-butyl-1-{3-fluoro-4-[5-(trifluoromethyl)-1,2,4-oxadiazol-3-yl]phenyl}-N-methyl-5-oxo-L-prolinamide], the IC50 at HDAC8 stood at 27 µM; at HDAC5, 1.8 µM; at HDAC1 it was 31 µM.

As for `CC1(C)CCCCN1C(=O)[C@@H]1CCC(=O)N1c1ccc(-c2noc(C(F)(F)F)n2)c(F)c1` [Example 343, (5S)-5-[(2,2-dimethylpiperidin-1-yl)carbonyl]-1-{3-fluoro-4-[5-(trifluoromethyl)-1,2,4-oxadiazol-3-yl]phenyl}pyrrolidin-2-one], the IC50 came out at 25 µM at HDAC8, 3 µM on HDAC5 and 24 µM on HDAC1.

Turning to `O=C(C1CCS(=O)(=O)CC1)N(Cc1ccc(-c2noc(C(F)(F)F)n2)cn1)c1cccc(C(F)(F)F)c1` [Example 456, N-({5-[5-(trifluoromethyl)-1,2,4-oxadiazol-3-yl]pyridin-2-yl}methyl)-N-[3-(trifluoromethyl)phenyl]tetrahydro-2H-thiopyran-4-carboxamide 1,1-dioxide], the IC50 on HDAC8 amounted to 2.5 µM; on HDAC5, 2.7 µM; at HDAC1 it was 0.36 µM.

With `O=C1COc2ccccc2N1Cc1ccc(-c2noc(C(F)(F)F)n2)cn1` [Example 462, 4-({5-[5-(trifluoromethyl)-1,2,4-oxadiazol-3-yl]pyridin-2-yl}methyl)-2H-1,4-benzoxazin-3(4H)-one], the results for the IC50 at HDAC8, at HDAC5 and at HDAC1 were 2.4 µM, 0.0096 µM and 0.15 µM, respectively.

Take `Cc1nc2ccc(F)cc2n1Cc1ccc(-c2noc(C(F)(F)F)n2)cn1` [Example 465, 6-fluoro-2-methyl-1-({5-[5-(trifluoromethyl)-1,2,4-oxadiazol-3-yl]pyridin-2-yl}methyl)-1H-benzimidazole]: the IC50 worked out at 5.6 µM on HDAC8, 0.036 µM at HDAC5 and 0.72 µM on HDAC1.

On to `O=c1[nH]c2ccccc2n(Cc2ccc(-c3noc(C(F)(F)F)n3)cn2)c1=O` [Example 469, 1-({5-[5-(trifluoromethyl)-1,2,4-oxadiazol-3-yl]pyridin-2-yl}methyl)-1,4-dihydroquinoxaline-2,3-dione], for which the figures for the IC50 at HDAC8, on HDAC5 and on HDAC1 were 1.4 µM, 0.022 µM and 0.086 µM, respectively.

With `CC(C)(C)OC(=O)[C@@H]1COCC(=O)N1c1ccc(-c2noc(C(F)(F)F)n2)c(F)c1` [Example 471, tert-butyl (3S)-4-{3-fluoro-4-[5-(trifluoromethyl)-1,2,4-oxadiazol-3-yl]phenyl}-5-oxomorpholine-3-carboxylate], the results for the IC50 on HDAC8, at HDAC5 and on HDAC1 were 3.8 µM, 0.054 µM and 0.87 µM, respectively.

Take `COCc1cccc(CCOc2cc(-c3noc(C(F)(F)F)n3)ccn2)c1` [Example 476, 2-{2-[3-(methoxymethyl)phenyl]ethoxy}-4-[5-(trifluoromethyl)-1,2,4-oxadiazol-3-yl]pyridine]: the IC50 was determined as 3 µM on HDAC8, 0.78 µM on HDAC5 and 1.9 µM on HDAC1.

For `O=C(C1CCS(=O)(=O)CC1)N(Cc1ccc(-c2noc(C(F)(F)F)n2)c(F)c1)c1cccc(C(F)(F)F)c1` [Example 489, N-({3-fluoro-4-[5-(trifluoromethyl)-1,2,4-oxadiazol-3-yl]phenyl}methyl)-1,1-dioxo-N-[3-(trifluoromethyl)phenyl]-llambda~6~-thiane-4-carboxamide], the IC50 on HDAC8 worked out at 6.9 µM; at HDAC5, 0.76 µM; on HDAC1, 0.95 µM.

For the compound `O=C(C1CCS(=O)(=O)CC1)N(Cc1ccc(-c2noc(C(F)(F)F)n2)cc1F)c1cccc(C(F)(F)F)c1` [Example 490, N-({2-fluoro-4-[5-(trifluoromethyl)-1,2,4-oxadiazol-3-yl]phenyl}methyl)-1,1-dioxo-N-[3-(trifluoromethyl)phenyl]-llambda~6~-thiane-4-carboxamide], the half-maximal inhibitory concentration (IC50) at HDAC8 worked out at 3.4 µM; at HDAC5, 0.52 µM; at HDAC1, 0.5 µM.

One may read the IC50 as the concentration that inhibits the measured activity by half.
